According to ChEMBL document CHEMBL1136790, “Identification of 1-arylmethyl-3- (2-aminoethyl)-5-aryluracil as novel gonadotropin-releasing hormone receptor antagonists” (J Med Chem, 2003):

Columns and labels:
[1] = target: T1, Gonadotropin-releasing hormone receptor (Homo sapiens, UniProt P30968); test: Binding affinity was determined towards human gonadotropin-releasing hormone receptor
T1 sequence (P30968 whole entry): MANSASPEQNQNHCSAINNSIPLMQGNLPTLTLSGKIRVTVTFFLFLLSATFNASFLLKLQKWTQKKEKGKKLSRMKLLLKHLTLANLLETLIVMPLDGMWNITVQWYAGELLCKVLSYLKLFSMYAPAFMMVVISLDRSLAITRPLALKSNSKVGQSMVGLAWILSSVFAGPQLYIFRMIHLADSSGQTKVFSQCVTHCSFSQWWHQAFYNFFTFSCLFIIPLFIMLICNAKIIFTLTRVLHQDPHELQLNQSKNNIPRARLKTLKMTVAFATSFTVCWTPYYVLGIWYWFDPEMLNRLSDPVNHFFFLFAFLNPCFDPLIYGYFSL

[2] = target: T1, Gonadotropin-releasing hormone receptor; test: Binding affinity was determined towards human Gonadotropin-releasing hormone receptor

SMILES	Ki [1] [nM]	Ki [2] [nM]
CCc1cccc(-c2c(C)n(Cc3c(F)cccc3F)c(=O)n(CCN(C)CCc3ccccn3)c2=O)c1	220	–
COc1cccc(-c2c(C)n(Cc3c(F)cccc3F)c(=O)n(CCN3CCC[C@@H]3Cc3ccccn3)c2=O)c1	4800	–
Cc1c(-c2ccccc2)c(=O)n(CCN(C)CCc2ccccn2)c(=O)n1Cc1c(F)cccc1F	400	–
COc1cccc(-c2c(C)n(Cc3c(F)cccc3F)c(=O)n(CCNCc3ccccc3)c2=O)c1	–	240
Cc1c(-c2cccc(O)c2)c(=O)n(CCN(C)CCc2ccccn2)c(=O)n1Cc1c(F)cccc1F	480	–
COc1cccc(-c2c(C)n(Cc3c(F)cccc3F)c(=O)n(CCNCCc3c[nH]cn3)c2=O)c1	3800	–
Cc1c(-c2ccc3c(c2)OCCO3)c(=O)n(CCN(C)CCc2ccccn2)c(=O)n1Cc1c(F)cccc1F	24	–
COc1cccc(-c2c(C)n(Cc3c(F)cccc3F)c(=O)n(CCN3CCC[C@H]3Cc3ccccn3)c2=O)c1	130	–
Cc1c(-c2ccc3c(c2)OCO3)c(=O)n(CCN(C)CCc2ccccn2)c(=O)n1Cc1c(F)cccc1F	38	–

Continued by falling Ki [1], values first:

Ki [1] [nM]	Ki [2] [nM]	SMILES
4800	–	Cc1c(-c2cccc(OC(F)(F)F)c2)c(=O)n(CCN(C)CCc2ccccn2)c(=O)n1Cc1c(F)cccc1F
2200	–	CCc1c(-c2cccc(OC)c2)c(=O)n(CCN(C)CCc2ccccn2)c(=O)n1Cc1c(F)cccc1F
1700	–	COc1cccc(-c2cn(Cc3c(F)cccc3F)c(=O)n(CCN(C)CCc3ccccn3)c2=O)c1
1100	–	COc1cccc(-c2c(C)n(Cc3c(F)cccc3F)c(=O)n(CCNCCc3ccccc3)c2=O)c1
530	–	COc1cccc(-c2c(C)n(Cc3c(F)cccc3F)c(=O)n(CCN3CCCC3c3ccccn3)c2=O)c1 (stereo unspecified)
230	–	COc1ccc(-c2c(C)n(Cc3c(F)cccc3F)c(=O)n(CCN(C)CCc3ccccn3)c2=O)cc1
30	–	Cc1c(-c2ccc(Oc3ccccc3)cc2)c(=O)n(CCN(C)CCc2ccccn2)c(=O)n1Cc1c(F)cccc1F
